What was measured:
PBMC [1] = assay: IL-12p70 production in PBMC stimulated with complexed RNA oligonucleotides or TLR ligands, ELISA of supernatant after 24 hours; assay type: cell-based, human; conditions: for IL-12p70 production within PBMC: TLR ligands at optimal concentrations, RNA complexed with poly-L-arginine
Experimental: FIG. 5: PBMC from three different healthy donors were isolated and stimulated with the following stimuli (form left to right): medium, Poly I:C (10 μg/ml), LPS (1 μg/ml), 3M-001 (1 μM), 3M-007 (1 μM), R848 (5 μg/ml), 3M-002 (1 μM), CpG ODN2216 (3 μg/ml), (the following stimuli were all complexed using poly-L-arginine 88) medium, polyA ssRNA, poly U ssRNA, polyA/U dsRNA, polyc ssRNA, polyG ssRNA, poly C/G dsRNA, 9.1 sense ssRNA, 9.1antisene ssRNA, 9.1duplex dsRNA, 9.2sense ssRNA, 9.2 antisene ssRNA, 9.2duplex dsRNA, 9.3sense ssRNA, 9.3antisene ssRNA and 9.3duplex dsRNA. 24 hours after stimulation supernatants were harvested and analyzed for IL-12p70 (A) and TNF-a (B) production. Data from three individual donors were summarized and depicted as mean values ±SEM. […]

PBMC [2] = assay: 193 ssRNA 4mer-motif library screen: IL-12 (IL-12p40) production in PBMC of six donors, poly-L-Arg complexation, ELISA at 44 hours, IL-12 index and adjusted IL-12 index; assay type: cell-based, human; design: key to Adjusted IL-12 index Mean: IL-12 index (ratio to 9.2sense) minus donor mean, averaged over 6 donors; conditions: for Adjusted IL-12 index Mean: 193 ssRNA oligonucleotide library, data from six individual donors summarized, ascending order
In short: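 Human PBMC from six healthy donors were stimulated in duplicate with poly-L-arginine-complexed ssRNA oligonucleotides, and IL-12p40 in supernatant was measured by ELISA at 44 h. Each value was divided by the 9.2sense control on the same plate (IL-12 index), then the donor's mean index was subtracted; adjusted indices are means ± SEM over donors.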

Compound | Adjusted IL-12 index Mean (PBMC [2]) | further results
5′-AGCUUAACCUGUCCUUCAA-3′ (RNA, backbone not given here) [9.2sense, standard ssRNA oligonucleotide, positive control on all cell culture plates] | – | IL-12p70 production, absolute value (PBMC [1]; donor 1, complexed with poly-L-arginine of approx. 88 amino acids): 1390 pg/mL; IL-12p70 production, absolute value (PBMC [1]; donor 2, complexed with poly-L-arginine of approx. 88 amino acids): 396 pg/mL; IL-12 in supernatant, mean of the two raw values of the duplicates (PBMC [2]; donor 3, poly-L-Arg complexed, 44 hours): 908 pg/mL
polyC | – | IL-12p70 production within PBMC (PBMC [1]): no activity
polyU | – | IL-12p70 production within PBMC (PBMC [1]): slight yet consistent IL-12 response
polyA | – | IL-12p70 production within PBMC (PBMC [1]): no activity; IL-12p70 production within PBMC (PBMC [1]; listed as poly adenosine RNA oligonucleotides): completely inactive; IL-12p70 production within PBMC (PBMC [1]; listed as poly adenosine oligonucleotides): inactive
CCOCc1nc2c(N)nc3ccccc3c2n1CC(C)(C)O [R848] | – | IL-12p70 production within PBMC (PBMC [1]): able to induce IL-12p70 production
AAAAAAAAGGUAAAAAAAA (RNA, backbone not given here) [ANP-Oligo 034] | 2.21 | –
AAAAAAACAACAAAAAAAA (RNA, backbone not given here) [ANP-Oligo 050] | −0.64 | –
AAAAAAAUUUGAAAAAAAA (RNA, backbone not given here) [ANP-Oligo 192] | 0.65 | –
AAAAAAACGGGAAAAAAAA (RNA, backbone not given here) [ANP-Oligo 081] | −0.63 | –
AAAAAAAACAUAAAAAAAA (RNA, backbone not given here) [ANP-Oligo 016] | −0.37 | –
CCCc1nc2c(N)nc3ccccc3c2s1 [3M-002] | – | IL-12p70 production within PBMC (PBMC [1]): able to induce IL-12p70 production
AAAAAAAACAAAAAAAAAA (RNA, backbone not given here) [ANP-Oligo 002] | −0.57 | –
AAAAAAAGCGUAAAAAAAA (RNA, backbone not given here) [ANP-Oligo 118] | 0.1 | –
AAAAAAAUCACAAAAAAAA (RNA, backbone not given here) [ANP-Oligo 158] | −0.39 | –
AAAAAAAUACCAAAAAAAA (RNA, backbone not given here) [ANP-Oligo 149] | 0.27 | –
AAAAAAAUUCGAAAAAAAA (RNA, backbone not given here) [ANP-Oligo 186] | −0.08 | –
AAAAAAAGCAUAAAAAAAA (RNA, backbone not given here) [ANP-Oligo 112] | 0.08 | –
AAAAAAAAUAUAAAAAAAA (RNA, backbone not given here) [ANP-Oligo 040] | −0.04 | –
AAAAAAACUUCAAAAAAAA (RNA, backbone not given here) [ANP-Oligo 095] | −0.39 | –
AAAAAAAGUAGAAAAAAAA (RNA, backbone not given here) [ANP-Oligo 135] | 0.67 | –
AAAAAAAUAGCAAAAAAAA (RNA, backbone not given here) [ANP-Oligo 152] | 0.35 | –
AAAAAAAUCCUAAAAAAAA (RNA, backbone not given here) [ANP-Oligo 163] | −0.15 | –
AAAAAAACUACAAAAAAAA (RNA, backbone not given here) [ANP-Oligo 086] | −0.46 | –
AAAAAAACGAUAAAAAAAA (RNA, backbone not given here) [ANP-Oligo 076] | 0.02 | –
AAAAAAAUACGAAAAAAAA (RNA, backbone not given here) [ANP-Oligo 150] | −0.3 | –
AAAAAAAGAAGAAAAAAAA (RNA, backbone not given here) [ANP-Oligo 099] | −0.61 | –
AAAAAAAUCAUAAAAAAAA (RNA, backbone not given here) [ANP-Oligo 160] | 0.1 | –
AAAAAAAGCUUAAAAAAAA (RNA, backbone not given here) [ANP-Oligo 121] | 0.24 | –
AAAAAAAAUCCAAAAAAAA (RNA, backbone not given here) [ANP-Oligo 041] | −0.48 | –
AAAAAAACUGGAAAAAAAA (RNA, backbone not given here) [ANP-Oligo 093] | −0.31 | –

— patent US8815503B2, “Compositions and methods for immunostimulatory RNA oligonucleotides” (Rheinische Friedrich-Wilhelms-Universitat Bonn, priority 2005, dated 2014)
